According to article PMC3743924 (The Biochemical journal, 2013):

Tests used:
[1] = molecular target: T1, APH(3')-Ia (Escherichia coli, UniProt P00551); conditions: Ca2+ complex; nucleotide site
[2] = molecular target: T1, APH(3')-Ia; assay: X-ray crystal structure, […]-2.[…] A; assay type: binding; conditions: ternary complex with kanamycin; ATP site; pH 4.5
[3] = molecular target: T1, APH(3')-Ia; assay: activity assay with kanamycin; assay type: biochemical; conditions: co-substrate kanamycin; constants unpublished

T1 sequence (P00551 whole entry): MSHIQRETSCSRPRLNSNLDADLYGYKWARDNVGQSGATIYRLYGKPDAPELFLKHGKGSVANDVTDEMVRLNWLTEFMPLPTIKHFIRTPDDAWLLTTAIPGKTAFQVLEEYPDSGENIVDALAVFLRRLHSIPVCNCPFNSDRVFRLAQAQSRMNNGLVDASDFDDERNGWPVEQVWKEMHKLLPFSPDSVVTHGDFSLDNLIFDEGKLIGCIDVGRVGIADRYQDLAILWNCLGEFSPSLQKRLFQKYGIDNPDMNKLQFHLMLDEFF

Nc1ncnc2c1ncn2[C@@H]1O[C@H](COP(=O)(O)OP(=O)(O)OP(=O)(O)O)[C@@H](O)[C@H]1O [ATP]
X-ray crystal structure, 2.3-2.4 A [1]: unambiguous additional density corresponding to the ATP molecule

COc1cc2ncnc(Nc3cccc(Cl)c3)c2cc1OC [Tyrphostin AG 1478, N-(3-chlorophenyl)-6,7-dimethoxyquinazolin-4-amine]
X-ray crystal structure, 2.69-2.71 A [2]: the inhibitor molecule was held in the NTP binding site through hydrophobic interactions

Nc1nc2c(ncn2[C@@H]2O[C@H](COP(=O)(O)OP(=O)(O)OP(=O)(O)O)[C@@H](O)[C@H]2O)c(=O)[nH]1 [GTP]
activity assay with kanamycin [3]: indicating GTP is a superior substrate
